{"source": "patent US12351586B2", "about": "(priority 2020, dated 2025)", "key": {"WT HIV-1 strain (IIIB)": {"test_system": "WT HIV-1 strain (IIIB)", "assay": "Anti-HIV activity in MT-4 cells, MTT method, WT HIV-1 strain (IIIB)", "assay_type": "cell-based", "from_the_text": "Etravirine (ETR) was selected as control drug.\nPannecouque et al. Nat. Protoc. […] Methods 20(1988) 309-321."}, "[1]": {"test_system": "HIV-1 mutant strains (K101E, V108I, F227C, M230I in RT gene)", "assay": "Activity against mutant strains selected by passaging HIV-1 IIIB 30 times in the presence of DK6-1", "assay_type": "cell-based"}, "[2]": {"test_system": "HIV-1 K103N mutant strain", "assay": "Anti-HIV activity in MT-4 cells, MTT method, K103N mutant strain", "assay_type": "cell-based", "details": "Human immunodeficiency virus 1, MT4, read-out: EC50 (anti-HIV activity)", "from_the_text": "Pannecouque et al. Nat. Protoc."}, "[3]": {"test_system": "HIV-1 L100I mutant strain", "assay": "microbe, parasite or virus in culture", "details": "Human immunodeficiency virus 1, MT4, read-out: EC50 (anti-HIV activity)"}, "[4]": {"test_system": "HIV-1 E138K mutant strain", "assay": "microbe, parasite or virus in culture", "details": "Human immunodeficiency virus 1, MT4, read-out: EC50 (anti-HIV activity)"}}}
{"smiles": "Cc1cn([C@H]2C[C@H](N=[N+]=[N-])[C@@H](CO)O2)c(=O)[nH]c1=O", "note": "[AZT]", "values": [{"measurement": "EC50", "setting": "WT HIV-1 strain (IIIB); HIV-1 IIIB wild-type", "value": 12.7, "unit": "nM"}, {"measurement": "EC50", "setting": "[1]; mutant strains with K101E, V108I, F227C, M230I", "value": 1, "unit": "nM"}, {"measurement": "fold potent versus own activity against HIV-1 IIIB", "setting": "[1]; selected mutant strains vs HIV-1 IIIB", "value": "about 10 fold"}]}
{"smiles": "Cc1cc(/C=C/C#N)cc(C)c1Oc1nc(NC2CCN(Cc3ccc(S(N)(=O)=O)cc3)CC2)nc2sccc12", "note": "[DK6-1]", "values": [{"measurement": "EC50", "setting": "WT HIV-1 strain (IIIB); Human immunodeficiency virus 1, MT4, HIV-1 IIIB wild-type", "value": 3.24, "unit": "nM"}, {"measurement": "EC50", "setting": "[2]", "value": 2.34, "unit": "nM"}, {"measurement": "EC50", "setting": "[3]", "value": "< 8", "unit": "nM"}, {"measurement": "EC50", "setting": "[4]", "value": "< 8", "unit": "nM"}]}
